Tests used:
Assay in all cases: Test F preemergence
Conditions in all cases: 21 days, scale 0 to 100
foxtail, green = assay type: in vivo, Setaria viridis
Description: (§1) Seeds of plant species selected from bermudagrass (Cynodon dactylon), surinam grass (Brachiaria decumbens), large (Lg) crabgrass (Digitaria sanguinalis), crabgrass, naked (naked crabgrass, Digitaria nuda), foxtail, green (green foxtail, Setaria viridis), johnsongrass (Sorghum halepense), kochia (Kochia scoparia), morningglory (pitted morningglory, Ipomoea lacunosa), nutsedge, purple (purple nutsedge, Cyperus rotundus), ragweed (common ragweed, Ambrosia elatior), mustard, black (black mustard, Brassica nigra), guineagrass (Panicum maximum), dallisgrass (Paspalum dilatatum), barnyardgrass (Echinochloa crus-galli), sandbur (southern sandbur, Cenchrus echinatus), sowthistle (common sowthistle, Sonchus oleraceous), Italian ryegrass (Lolium multiflorum), signalgrass (broadleaf signalgrass, Brachiaria platyphylla), dayflower (Virginia (VA) dayflower, Commelina virginica), bluegrass (annual bluegrass, Poa annua), quackgrass (Elytrigia repens), mallow (common mallow, Malva sylvestris), buckwheat, wild (wild buckwheat, Polygonum convolvulus), leafy spurge (Euphorbia esula), chickweed (common chickweed, Stellaria media), wild poinsettia (Euphorbia heterophylla), and pigweed (Amaranthus retroflexus) were planted into a blend of loam soil and sand and treated preemergence with test chemicals formulated in a non-phytotoxic solvent mixture which included a surfactant.
(§2) Treated plants and controls were maintained in a greenhouse for 21 days, after which time all species were compared to controls and visually evaluated. Plant response ratings, summarized in Table F, are based on a scale of 0 to 100 where 0 is no effect and 100 is complete control. A dash (-) response means no test result.

surinam grass = assay type: in vivo, Brachiaria decumbens
Description: as §1, §2

guineagrass = assay type: in vivo, Panicum maximum
Description: as §1, §2

large (Lg) crabgrass = assay type: in vivo, Digitaria sanguinalis
Description: as §1, §2

sandbur = assay type: in vivo, Cenchrus echinatus
Description: as §1, §2

bermudagrass = assay type: in vivo, Cynodon dactylon
Description: as §1, §2

dallisgrass = assay type: in vivo, Paspalum dilatatum
Description: as §1, §2

Italian ryegrass = assay type: in vivo, Lolium multiflorum
Description: as §1, §2

Compound | Plant response rating, Foxtail, Green (foxtail, green; 16 g ai/ha) | Plant response rating, Foxtail, Green (foxtail, green; 31 g ai/ha) | Plant response rating, Foxtail, Green (foxtail, green; 62 g ai/ha) | Plant response rating, Foxtail, Green (foxtail, green; 125 g ai/ha) | Plant response rating, Foxtail, Green (foxtail, green; 250 g ai/ha) | Plant response rating, Surinam Grass (surinam grass; 16 g ai/ha) | Plant response rating, Surinam Grass (surinam grass; 31 g ai/ha) | Plant response rating, Surinam Grass (surinam grass; 62 g ai/ha) | Plant response rating, Surinam Grass (surinam grass; 125 g ai/ha) | Plant response rating, Surinam Grass (surinam grass; 250 g ai/ha) | Plant response rating, Guineagrass (guineagrass; 16 g ai/ha) | Plant response rating, Guineagrass (guineagrass; 31 g ai/ha) | Plant response rating, Guineagrass (guineagrass; 62 g ai/ha) | Plant response rating, Guineagrass (guineagrass; 125 g ai/ha) | Plant response rating, Guineagrass (guineagrass; 250 g ai/ha) | Plant response rating, Crabgrass, Large (large (Lg) crabgrass; 16 g ai/ha) | Plant response rating, Crabgrass, Large (large (Lg) crabgrass; 31 g ai/ha) | Plant response rating, Crabgrass, Large (large (Lg) crabgrass; 62 g ai/ha) | Plant response rating, Crabgrass, Large (large (Lg) crabgrass; 125 g ai/ha) | Plant response rating, Crabgrass, Large (large (Lg) crabgrass; 250 g ai/ha) | further results
N#Cc1cccc(Oc2ncc(F)cn2)c1-n1cc(C(F)(F)F)cn1 [Compound 79, 3-[(5-fluoro-2-pyrimidinyl)oxy]-2-[4-(trifluoromethyl)-1H-pyrazol-1-yl]benzonitrile] | 95 | 100 | 100 | 100 | 100 | 75 | 90 | 95 | 100 | 100 | 100 | 100 | 100 | 100 | 100 | 98 | 100 | 100 | 100 | 100 | Plant response rating, Sandbur (sandbur; 16 g ai/ha): 10; Plant response rating, Sandbur (sandbur; 31 g ai/ha): 15; Plant response rating, Sandbur (sandbur; 62 g ai/ha): 95; Plant response rating, Sandbur (sandbur; 125 g ai/ha): 98; Plant response rating, Sandbur (sandbur; 250 g ai/ha): 100; Plant response rating, Bermudagrass (bermudagrass; 16 g ai/ha): 98; Plant response rating, Bermudagrass (bermudagrass; 31 g ai/ha): 100; Plant response rating, Bermudagrass (bermudagrass; 62 g ai/ha): 100; Plant response rating, Bermudagrass (bermudagrass; 125 g ai/ha): 100; Plant response rating, Bermudagrass (bermudagrass; 250 g ai/ha): 100; Plant response rating, Dallisgrass (dallisgrass; 16 g ai/ha): 65; Plant response rating, Dallisgrass (dallisgrass; 31 g ai/ha): 98; Plant response rating, Dallisgrass (dallisgrass; 62 g ai/ha): 100; Plant response rating, Dallisgrass (dallisgrass; 125 g ai/ha): 100; Plant response rating, Dallisgrass (dallisgrass; 250 g ai/ha): 100; Plant response rating, Ryegrass, Italian (Italian ryegrass; 16 g ai/ha): 30; Plant response rating, Ryegrass, Italian (Italian ryegrass; 31 g ai/ha): 75; Plant response rating, Ryegrass, Italian (Italian ryegrass; 62 g ai/ha): 98; Plant response rating, Ryegrass, Italian (Italian ryegrass; 125 g ai/ha): 100; Plant response rating, Ryegrass, Italian (Italian ryegrass; 250 g ai/ha): 100
N#Cc1cccc(Oc2ncc(Cl)cn2)c1-n1cc(OC(F)F)cn1 [Compound 97] | 75 | 100 | 100 | 100 | 100 | 0 | 10 | 50 | 90 | 100 | 100 | 100 | 100 | 100 | 100 | 98 | 100 | 100 | 100 | 100 | Plant response rating, Sandbur (sandbur; 16 g ai/ha): 0; Plant response rating, Sandbur (sandbur; 31 g ai/ha): 10; Plant response rating, Sandbur (sandbur; 62 g ai/ha): 25; Plant response rating, Sandbur (sandbur; 125 g ai/ha): 100; Plant response rating, Sandbur (sandbur; 250 g ai/ha): 100; Plant response rating, Bermudagrass (bermudagrass; 16 g ai/ha): 80; Plant response rating, Bermudagrass (bermudagrass; 31 g ai/ha): 95; Plant response rating, Bermudagrass (bermudagrass; 62 g ai/ha): 100; Plant response rating, Bermudagrass (bermudagrass; 125 g ai/ha): 100; Plant response rating, Bermudagrass (bermudagrass; 250 g ai/ha): 100; Plant response rating, Dallisgrass (dallisgrass; 16 g ai/ha): 75; Plant response rating, Dallisgrass (dallisgrass; 31 g ai/ha): 98; Plant response rating, Dallisgrass (dallisgrass; 62 g ai/ha): 100; Plant response rating, Dallisgrass (dallisgrass; 125 g ai/ha): 100; Plant response rating, Dallisgrass (dallisgrass; 250 g ai/ha): 100; Plant response rating, Ryegrass, Italian (Italian ryegrass; 16 g ai/ha): 0; Plant response rating, Ryegrass, Italian (Italian ryegrass; 31 g ai/ha): 35; Plant response rating, Ryegrass, Italian (Italian ryegrass; 62 g ai/ha): 70; Plant response rating, Ryegrass, Italian (Italian ryegrass; 125 g ai/ha): 85; Plant response rating, Ryegrass, Italian (Italian ryegrass; 250 g ai/ha): 100

From patent publication US9695155B2, “Herbicidal substituted pyrimidinyloxy benzene compounds” (E. I. DU PONT DE NEMOURS AND COMPANY, priority 2013, dated 2017)
